According to patent US20130085182A1, “SODIUM 2-MERCAPTOETHANE SULFONATE FOR USE IN THE TREATMENT OF LUMBAR PAIN” (UNIVERSITA' CAMPUS BIO-MEDICO DI ROMA, priority 2010, published 2013):

How the values were obtained:
Assay type in all cases: in vivo, human
[1] = system: patients suffering from FBSS (lumbar pain); experiment: Clinical study: pain evaluation by Numeric Rating Scales (NRS) after peridural infiltration; conditions: 11 FBSS patients, epidural 1 ml of 50 or 100 mg/ml, +1 week
Excerpt: 11 patients (7 males and 4 females), of ages ranging between 48 and 78 years, and suffering from FBSS, were studied (according to the operative diagram in FIG. 1) for a 9-month period. As criteria for inclusion in the treatment protocol were considered: • failed back surgery syndrome (FBSS) • lumbar pain present for >3 months • absence of improvement of pain with administration of oral pharmacological analgesics/opioids-based therapy; • non-eligibility for lumbar revision surgery treatment. • patients refusing treatment; • carriers of infections localized at the level of the infiltration site; • undergoing systemic infective processes; • coagulation alterations. After having been evaluated under the clinical instrumental standpoint, the patient was subjected to infiltrative treatment upon coagulation testing and replacement of oral anticoagulant therapy (possibly taken by the patient), with low molecular weight heparin. Infiltration was conducted in Day Surgery regimen, inviting the patient to have it on an empty stomach. […] The drug at issue, sodium 2-mercaptoethansulfonate, was contained in an ampoule with a 10% concentration; for each infiltration, 1 ml was collected and the concentration used was of 50 mg/ml in some cases and of 100 mg/ml in other cases. The entire infiltration procedure required 10-15 min. Of the 11 patients, 2 had already undergone 3 surgical interventions to the lumbar rachis, other 2 had undergone 2 interventions, and 7 had undergone 1 intervention. […] In particular, we asked to assign a value (comprised between 0 and 10) to pain intensity in a standing position, in horizontal posture, and while sitting; evaluation of the 3 parameters helped us in pain classification, and was aimed at determining musculoskeletal and gravity activation at different instants and the quantitative impact on pain intensity caused by the assuming of the different positions. […] To the first answer a score equal to 0 was assigned, to the second one equal to 1, and so on until the sixth answer that would be equal to 5. the score is calculated as follows: TOTAL SCORE/(5×9)×100.

[2] = system: patients suffering from FBSS (lumbar pain); experiment: Clinical study: lumbar rachis functionality by Oswestry Disability Index (ODI); conditions: 11 FBSS patients; epidural 1 ml of 50 or 100 mg/ml; +1 week; before the procedure 52.18%; P=0.05
Excerpt: 11 patients (7 males and 4 females), of ages ranging between 48 and 78 years, and suffering from FBSS, were studied (according to the operative diagram in FIG. 1) for a 9-month period. As criteria for inclusion in the treatment protocol were considered: • failed back surgery syndrome (FBSS) • lumbar pain present for >3 months • absence of improvement of pain with administration of oral pharmacological analgesics/opioids-based therapy; • non-eligibility for lumbar revision surgery treatment. • patients refusing treatment; • carriers of infections localized at the level of the infiltration site; • undergoing systemic infective processes; • coagulation alterations. After having been evaluated under the clinical instrumental standpoint, the patient was subjected to infiltrative treatment upon coagulation testing and replacement of oral anticoagulant therapy (possibly taken by the patient), with low molecular weight heparin. […] In particular, we asked to assign a value (comprised between 0 and 10) to pain intensity in a standing position, in horizontal posture, and while sitting; evaluation of the 3 parameters helped us in pain classification, and was aimed at determining musculoskeletal and gravity activation at different instants and the quantitative impact on pain intensity caused by the assuming of the different positions. […]

[3] = system: patients suffering from FBSS (lumbar pain); experiment: Clinical study: functional improvement by Odom's criteria; conditions: out of 11 FBSS patients; after epidural infiltration
Excerpt: 11 patients (7 males and 4 females), of ages ranging between 48 and 78 years, and suffering from FBSS, were studied (according to the operative diagram in FIG. 1) for a 9-month period. As criteria for inclusion in the treatment protocol were considered: • failed back surgery syndrome (FBSS) • lumbar pain present for >3 months • absence of improvement of pain with administration of oral pharmacological analgesics/opioids-based therapy; • non-eligibility for lumbar revision surgery treatment. • patients refusing treatment; • carriers of infections localized at the level of the infiltration site; • undergoing systemic infective processes; • coagulation alterations. After having been evaluated under the clinical instrumental standpoint, the patient was subjected to infiltrative treatment upon coagulation testing and replacement of oral anticoagulant therapy (possibly taken by the patient), with low molecular weight heparin. Infiltration was conducted in Day Surgery regimen, inviting the patient to have it on an empty stomach. […] The drug at issue, sodium 2-mercaptoethansulfonate, was contained in an ampoule with a 10% concentration; for each infiltration, 1 ml was collected and the concentration used was of 50 mg/ml in some cases and of 100 mg/ml in other cases. The entire infiltration procedure required 10-15 min. Of the 11 patients, 2 had already undergone 3 surgical interventions to the lumbar rachis, other 2 had undergone 2 interventions, and 7 had undergone 1 intervention. In particular, 4 had undergone an herniectomy, 2 an hemilaminectomy, 2 an herniectomy plus an hemilaminectomy and 3 a vertebral stabilization intervention. The levels involved were comprised between L1 and S1, with an extension range of 2 to 5 levels. Each patient was subjected, on average, to 2 (range comprised between 1 and 4) peridural infiltrations of sodium 2 mercaptoethane sulfonate (FIG. 2).

O=S(=O)([O-])CCS.[Na+] [sodium 2-mercaptoethane sulfonate, Sodium 2-mercaptoethane sulfonate]
mean pain NRS (0-10) in a sitting position following the procedure ([1]; on average 2 infiltrations, pre-procedure mean 7.0, P=0.002): 5.55 | mean pain NRS (0-10) in a horizontal position following the procedure ([1]; pre-procedure mean 6.64, P=0.001): 4.82 | mean pain NRS (0-10) standing following the procedure ([1]; pre-procedure mean 7.36, P=0.01): 5.73 | Oswestry Disability Index (ODI), average after the procedure [2]: 41.64% | Odom's criteria: number of patients with Excellent result [3]: 0 patients | Odom's criteria: number of patients with Fair result [3]: 4 patients | Odom's criteria: number of patients with Good result [3]: 7 patients | Odom's criteria: number of patients with Poor result [3]: 0 patients | Odom's criteria: share of patients with Fair result [3]: 36.4% | Odom's criteria: share of patients with Good result [3]: 63.6%
